# Test results: patent US10080779B2, “Method for increasing the expression of anti-microbial peptides by keratinocytes comprising administering a composition comprising IL-17, TNF-alpha and OSM” (Universite D'Angers, priority 2004, dated 2018)
# What was measured:
# NHEK [1] = assay: Chemokine production by NHEK (ELISA), OSM; format: cell-based, human; details: 48 h NHEK under OSM stimulation
# Method: IL-1beta, IL-6, IL-8, IL-10, IL-12p70, TNF alpha, ENA-78, MIP 3 beta were measured by specific ELISA in 48 h NHEK culture supernatants. Cells were cultured in the presence or not of OSM. Dose-response (0.4 to 25 ng/ml) and kinetic (6 to 96 h) studies of ENA78 production were also performed.
# NHEK [2] = assay: RT-QPCR of antimicrobial peptide and chemokine genes in NHEK; format: cell-based, human; details: 10 ng/ml, 24 h
# Method: (§1) NHEK were obtained as previously described, from surgical samples of healthy breast skin (Boniface et al, 2005). NHEK were cultured to 80% of confluence and then starved for 24 h in Keratinocyte SFM without addition of growth factors before stimulation. Cells were stimulated with or without 10 ng/ml of recombinant IL-17A, OSM, TNFα, IL-22 and IL-1α alone or in combination (R&D systems Europe, Lille, France) during 24 h for mRNA quantification or 48 h to 96 h for protein quantification.
# NHEK and skin total RNA were isolated and reverse-transcribed as previously described (Boniface et al, 2005). Quantitative real time PCR was carried using the LightCycler-FastStart DNA Master SYBR® Green I kit on LightCycler 480 (Roche Diagnostics, Meylan, France). The reaction components were 1×DNA Master Mix, and 0.5 μM of HPLC purified sense and anti-sense oligonucleotides purchased from Eurogentec (Eurogentec France, Angers, France), designed using Primer3 software. Samples were normalized to three independent control housekeeping genes (G3PDH, RPL13A or ACTB for human samples and G3PDH, HMBS or B2m for mouse samples) and reported according to the ΔΔCT method as RNA fold increase: 2^ΔΔCT=2^ΔCT sample−ΔCT eference. For comparison of normal skin and psoriatic skin the REST 2008 software was used (Pfaffl et al., 2002).
# [3] = test system: reconstituted human epidermis (RHE); assay: Gene expression profiling of RHE using cDNA macroarrays; format: cell-based; details: 10 ng/ml OSM 24 h
# Method: (§2) Total RNA was isolated as described for PCR studies. DNase treatment, polyA^+ RNA enrichment, ^33P-labelled cDNA probe synthesis, purification and hybridization to custom Atlas array membranes (Bernard, Pedretti et al. 2002) were performed according to Clontech's recommendations (Clontech, Palo Alto, USA). Membranes were exposed for 5 days to a Molecular Dynamics Storm storage screen and scanned using a phosphorimager scanner (Molecular Dynamics Storm analyser, Amersham Biosciences, Uppsala, Sweden). After local background substraction, average signal intensity from duplicate spots was normalized for differences in probe labelling using the values obtained for housekeeping genes (Bernard et al., 2002). For each gene, the OSM-induced modulation was expressed as the relative expression value for stimulated versus control sample. Arbitrarily, only modulation above 2 was considered significant for confirmation using RT-real time PCR assay.
# For gene expression profiling using cDNA macroarrays, 17 days old RHE were grown for 1 day in SkinEthic maintenance medium prior to stimulation in the absence or presence of OSM for 24 h. Total RNA was isolated and cDNA arrays were performed as described above.
# NHEK [4] = assay: In vitro keratinocyte migration assay; format: cell-based, human; details: mitomycin-treated wounded NHEK; OSM 10 ng/ml, IL-31 100 ng/ml
# Method: Keratinocytes were cultured in wells pre-coated with type I collagen (200 μg/ml, Institut Jacques Boy, Reims, France) until they reached 80% confluency. Cells were starved for 48 h in Keratinocyte SFM and then treated with 10 μg/ml of mitomycin C (Sigma) for 2 h to prevent cell proliferation. A cell-free area was created by scraping the keratinocyte monolayer with a plastic pipette tip. Keratinocytes migration to the cell-free area was evaluated after 48 h of culture in the absence or presence of EGF or OSM. Using an inverted phase contrast microscope. The number of migrating keratinocytes was counted in 4 non-overlapping fields. Values represent the mean±SEM of cells per mm^2 beyond the frontiers of the in vitro injury. Student's t test was used for statistical analysis.
# NHEK [5] = assay: Gene expression profiling of NHEK using cDNA macroarrays; format: cell-based, human; details: 10 ng/ml OSM 24 h
# Method: as §2
# NHEK [6] = assay: Cytokine measurement by ELISA in NHEK culture supernatants; format: cell-based, human; details: 10 ng/ml, 96 h
# Method: as §1
# Levels of BD2, BD3 and CXCL8 were determined using Human ELISA development kit (Peprotech), and CXCL1 and CXCL5 with DuoSet reagents (R&D Systems Europe).
# RHE = RHE histology and immunohistochemistry (Example 14); format: cell-based, human; details: single cytokines, 72 h
# Method: Normal human epidermal keratinocytes (NHEK) were obtained as previously described, from surgical samples of healthy breast skin (Boniface et al, 2005). NHEK were cultured to 80% of confluence allowing the expression of a large panel of keratinocyte differentiation markers, and then starved for 24 h in Keratinocyte SFM containing 0.03 mM Ca^2+ (Invitrogen Life Technologies, Cergy Pontoise, France) before stimulation. Confluent differentiated cells were stimulated with or without recombinant IL-17A, OSM, TNFα, IL-22 and IL-1α alone at maximum effective concentrations (reported previously around 10 ng/ml (Boniface et al, 2005 and Boniface et al, 2007)) or in combination (R&D systems Europe, Lille, France) during 2 h to 72 h for mRNA quantification. RHE were generated on polycarbonate culture inserts, from surgical samples of paediatric foreskins as previously described (Guenou et al., 2009). RHE were stimulated with or without recombinant IL-17A, OSM, TNFα, IL-22 and IL-1α alone or in combination, with or without a Janus protein Tyrosine Kinases (JAKs) inhibitor 10 μM (Calbiochem, 420099), during 24 h for mRNA quantification or during 72 h for immunohistological analysis.
# RHE were washed and fixed with formaldehyde solution. Fixed tissues were dehydrated with increasing ethanol concentrations, embedded in paraffin and sections were carried out using a microtome (4 μm thickness). The sections were deparaffinised, washed and incubated with hydrogen peroxide. The sections were incubated with anti-CK10 (SantaCruz, SC-23877), anti-LOR (Eurogentec, PRB-145P), anti-FLG (SantaCruz, SC-66192), anti-IVL (Biomedical Technologies, BT-601), anti-S100A7 (Clinisciences, IMG-409A) and then detected using a biotin-conjugated secondary antibody (Vector, RTU vectastain universal quick kit, PK-7800). After peroxidase-conjugated streptavidine (Vector, RTU vectastain universal quick kit, PK-7800) and peroxidase substrate addition (Dako, Substrat hyper-sensible AEC+), nuclei were counter-stained using a solution of hematoxylin. Sections were observed using a NIKON E400 microscope. The images were captured using a NIKON DS-Ril and processed with NIS-Elements 3.10 software.
substance,measurement,setting,value
"OSM: human recombinant oncostatin M, cytokine of the IL-6 family",Production of chemokines CXCL5 and CXCL8,NHEK [1],clearly enhanced
same,Number of the 21 chemokine and antimicrobial peptide genes upregulated,NHEK [2],13
same,"S100A7, S100A8, S100A9 and S100 neutrophil protein gene expression",[3],strongly up-regulated
same,Keratinocyte migration to the cell-free area,NHEK [4],"important migration of NHEK, similar to that observed in the presence of EGF"
same,"Expression of CXCL1, CXCL5, CXCL8 and PDGF-A genes",NHEK [5],increased the expression
same,"Expression of calcium binding proteins S100A7, S100A8, S100A9, S100 neutrophil protein",NHEK [5],marked increase
same,"Expression of genes associated with keratinocyte differentiation (CK1, CK10, fillagrin, loricrin)",NHEK [5],down regulates
same,Number of genes with decreased expression,NHEK [5]; array of 586 cDNAs,38 genes
same,Number of genes with increased expression,NHEK [5]; array of 586 cDNAs,36 genes
same,BD3 production,NHEK [6],significant increase
same,"CXCL1, CXCL5, CXCL8 production, single cytokines",NHEK [6],discrete effect
same,"CK10, LOR and FLG expression (immunohistology)",RHE; RHE,"decreases expression of CK10, LOR and FLG"
same,IVL expression (immunohistology),RHE; RHE,strongly
same,S100A7 expression (immunohistology),RHE; RHE,strongly induced
same,RHE histology,RHE,significant keratinocyte hyperplasia
